Experimental data as given in patent US5079257A, “Indoloquinone compounds” (priority 1986, dated 1992).
In brackets after ≈: the same amount, converted by molar mass. Like-named read-outs stand apart in the source and are kept apart here.

Experiments:
[1] = system: R-1 cells (Rhabdomyosarcoma Cells); assay: R-1 activity (bioliquid assay), cytotoxicity; assay type: cell-based; conditions: Rhabdomyosarcoma cell
Excerpt: The indoloquinones II (formula II) have been tested in respect of their cytotoxic activity against L1210 cells and R-1 cells (Rhabdomyosarcoma Cells) in a bioliquid assay at the department of oncology of the Free University of Amsterdam (Table I). […] (Table II). Eight indoloquinones (E.O. 1, E.O. 2, E.O. 4, E.O. 4A, E.O. 8, E.O. 9, E.O. 33 and E.O. 35) have been tested in a panel of five human tumour lines (TNO Rijswijk; Table III).
For the determination of the R-1 activity, Rhabdomyosarcoma cells were brought into Falcon multiwells (growth area: 9.6 cm^2) (~10^6 cells per dish) containing 3 ml of Dulbecco's medium supplemented with 10% Foeto Calf Serum (FCS). […] Thereupon the drug solution was removed and the cells were covered with fresh medium. After 48 hours the cells were trypsinized and counted on a Sysmex microcell counter (CC110).
(§1) The in vitro L1210 and R-1 activities of the indoloquinones (formula III), were also determined in the bioliquid assays as described above.

L1210 cells = assay: L1210 activity (bioliquid assay), cytotoxicity; assay type: cell-based; conditions: for IC50: Mus musculus; for ID-50 L1210: Table VI, 2880 min
Excerpt: The indoloquinones II (formula II) have been tested in respect of their cytotoxic activity against L1210 cells and R-1 cells (Rhabdomyosarcoma Cells) in a bioliquid assay at the department of oncology of the Free University of Amsterdam (Table I). In addition to this seven compounds (E.O. 1, E.O. 2, E.O. 4, E.O. 7, E.O. 9, E.O. 16 and E.O. 17) have been tested on L1210 activity in a clonogenic assay at TNO, Rijswijk. Further, the lowest active doses of the compounds E.O. 1, E.O. 2, E.O. 4 and E.O. 9 have been determined at TNO Rijswijk, according to the method described by Lamberts et al. [Oncology, 40, 301 (1983)]. (Table II). Eight indoloquinones (E.O. 1, E.O. 2, E.O. 4, E.O. 4A, E.O. 8, E.O. 9, E.O. 33 and E.O. 35) have been tested in a panel of five human tumour lines (TNO Rijswijk; Table III). From the latter group three indoloquinones (E.O. 1, E.O. 4 and E.O. 9) have been selected for a cytotoxicity study, involving five slowly growing human tumour lines (University of Freiburg; Table IV).
For this purpose, L1210 cells were grown, as suspension, in Falcon multi-wells (growth area: 9.6 cm^2) using RPMI supplemented with 15% FCS and 2-mercapto-ethanol (60 μmol) as medium. In this medium, the cells were continuously incubated with the compound to be tested at 37° C. in an atmosphere of 5% CO2 in humidified air for 48 hours. Thereupon they were counted on a Sysmex microcell counter (CC110).
as §1

[2] = Half-wave reduction potentials / polarography (University of Utrecht); assay type: physicochemical; conditions: Table IA; only the first (quinone) reduction potential
Excerpt: *The halve wave reduction potentials (E1/2) have been determined at the
Pharmaceutical Laboratory of University of Utrecht. Only the first
(quinone) reduction potential has been given.
Additional evidence for the occurrence of a bioreductive activation mechanism during the cytotoxic action of indoloquinones (II) was obtained via electrochemical studies, which have been carried out at the Pharmaceutical Laboratory of the University of Utrecht. […]

[3] = system: A 204 cells; rhabdomyosarcoma; assay: In vitro panel of human tumour lines (TNO): A 204; assay type: cell-based; conditions: about 72 hours; note: key: -: no inhibition of cell growth; +: total cell-kill
Description: (§2) Compounds E.O. 1, E.O. 2, E.O. 4, E.O. 4A, E.O. 8, E.O. 9, […], E.O. 33, and E.O. 35 were tested for their activity against five human tumour cell lines at the Radiobiological Institute TNO Rijswijk.
(§3) The new in vitro prescreen uses human tumour clones; it was set up by Dr. P. Lelieveld at TNO Rijswijk and comprises testing compounds in a bioliquid assay for their cytostatic activity against the following five human tumour lines:
(§4) After a continuous exposure to the drugs to be tested and to Adriamycin in `24 well tissue culture clusters, type 3524 (Costar)`, the remaining cells are fixed and stained. Using increasing drug concentrations the inhibiting concentration can be estimated qualitatively.
(§5) Cells: the human tumour cells are maintained in Dulbecco's medium supplemented with 10 percent foetal calf serum.
(§6) A, T and Z cell suspensions: 5·10^4 cells/ml
(§7) The cells were grafted into 16 mm wells for 48 hours (0.5 ml cell suspension per well was used).
(§8) Drugs: the compound to be tested was dissolved in appropriate concentrations in a mixture of Hepes-buffered Hanks' balanced salt solution and ethanol. The drug solutions (0.05 ml) were added to the different wells. The final ethanol concentration in each well was less than one percent.
(§9) The cells were continuously incubated with the compound under test at 37° in an atmosphere of 10 percent CO2 in humidified air for about 72 hours.
(§10) Determination of the inhibiting dose: the cells were fixed and stained with a solution of crystal violet in methanol/formaldehyde.

MCF7 breast cancer cells = assay: In vitro panel of human tumour lines (TNO): MCF-7; assay type: cell-based; conditions: about 72 hours; note: key: -: no inhibition of cell growth; +: total cell-kill
Description: as §2, §3, §4, §5
(§11) M and W cell suspensions: 10^5 cells/ml.
as §7, §8, §9, §10

[4] = system: T 24 cells; bladder carcinoma; assay: In vitro panel of human tumour lines (TNO): T 24; assay type: cell-based; conditions: about 72 hours; note: key: -: no inhibition of cell growth; +: total cell-kill
Description: as §2, §3, §4, §5, §6, §7, §8, §9, §10

WiDr cells; colon tumour = assay: In vitro panel of human tumour lines (TNO): WiDr; assay type: cell-based; conditions: about 72 hours; note: key: -: no inhibition of cell growth; +: total cell-kill
Description: as §2, §3, §4, §5, §11, §7, §8, §9, §10

IgR37 cells melanoma = assay: In vitro panel of human tumour lines (TNO): IgR-37; assay type: cell-based; conditions: about 72 hours; note: key: -: no inhibition of cell growth; +: total cell-kill
Description: as §2, §3, §4, §5, §6, §7, §8, §9, §10

[5] = read-out: ID-50 R-1, Table IA, para-indoloquinone diesters
[6] = L1210, 48 h, read-out: ID-50 L1210, Table IA, para-indoloquinone diesters
[7] = Table I, bioliquid assay, read-out: ID-50 R-1
[8] = L1210, Table I, bioliquid assay, 48 hours, read-out: ID-50 L1210

COC(=O)/C=C/c1c(C(=O)OC)c2c(n1C)C(=O)C=C(N1CC1C)C2=O (stereo not drawn) [E.O. 28, Methyl 3-methoxycarbonyl-1-methyl-5-propyleneamino-2-[1H-indole-4,7-dione]acrylate]
IC50 [1, 5]: 5.7 µg/mL (≈ 15.9 µM) | IC50 (L1210 cells; [6]): 2.2 µg/mL (≈ 6.14 µM) | E1/2, halve wave reduction potential [2]: -171 mV

COC(=O)/C=C/c1[nH]c2c(c1C(=O)OC)C(=O)C(OC)=CC2=O [E.O. 29, Methyl 5-methoxy-3-methoxycarbonyl-2-[1H-indole-4,7-dione]acrylate]
IC50 ([1]; Table IA, para-indoloquinone diesters, read-out: ID-50 R-1): 4.9 µg/mL (≈ 15.3 µM) | IC50 (L1210 cells; L1210, 48 h, Table IA, para-indoloquinone diesters, read-out: ID-50 L1210): 2.2 µg/mL (≈ 6.89 µM) | E1/2, halve wave reduction potential [2]: -211 mV

COC1=C(C)C(=O)c2c(c(COC(C)=O)c(/C=C/COC(C)=O)n2C)C1=O [E.O. 33, 3-Acetoxymethyl-1,6-dimethyl-5-methoxy-2-[1H-indole-4,7-dione]prop-β-en-α-yl acetate]
IC50 [1, 7]: 2.2 µg/mL | IC50 (L1210 cells; [8]): 3.6 µg/mL | in vitro activity score, A 204 ([3]; 0.01 μg/ml): - | in vitro activity score, A 204 ([3]; 0.1 μg/ml): - | in vitro activity score, A 204 ([3]; 1.0 μg/ml): - | in vitro activity score, A 204 ([3]; 10 μg/ml): + | in vitro activity score, MCF-7 (MCF7 breast cancer cells; 0.01 μg/ml): - | in vitro activity score, MCF-7 (MCF7 breast cancer cells; 0.1 μg/ml): - | in vitro activity score, MCF-7 (MCF7 breast cancer cells; 1.0 μg/ml): - | in vitro activity score, T 24 ([4]; 0.01 μg/ml): - | in vitro activity score, T 24 ([4]; 0.1 μg/ml): - | in vitro activity score, T 24 ([4]; 1.0 μg/ml): - | in vitro activity score, T 24 ([4]; 10 μg/ml): + | in vitro activity score, WiDr (WiDr cells; colon tumour; 0.01 μg/ml): - | in vitro activity score, WiDr (WiDr cells; colon tumour; 0.1 μg/ml): - | in vitro activity score, WiDr (WiDr cells; colon tumour; 1.0 μg/ml): - | in vitro activity score, IgR-37 (IgR37 cells melanoma; 0.01 μg/ml): - | in vitro activity score, IgR-37 (IgR37 cells melanoma; 0.1 μg/ml): - | in vitro activity score, IgR-37 (IgR37 cells melanoma; 1.0 μg/ml): - | in vitro activity score, IgR-37 (IgR37 cells melanoma; 10 μg/ml): +

COC(=O)/C=C/c1c(C(=O)OC)c2c(n1C)C(=O)C(C)=C(N1CC1)C2=O [E.O. 34, Methyl 5-aziridino-1,6-dimethyl-3-methoxycarbonyl-2-[1H-indole-4,7-dione]acrylate]
IC50 [1, 5]: 2.8 µg/mL (≈ 7.81 µM) | IC50 (L1210 cells; [6]): 2.7 µg/mL (≈ 7.53 µM) | E1/2, halve wave reduction potential [2]: -239 mV

CC(=O)OC/C=C/c1c(COC(C)=O)c2c(n1C)C(=O)C=C(N1CCOCC1)C2=O [E.O. 60, 3-Acetoxymethyl-1-methyl-5-morpholino-2-[1H-indole-4,7-dione]prop-β-en-α-yl acetate]
IC50 [1, 7]: 3.3 µg/mL | IC50 (L1210 cells; [8]): > 10 µg/mL | ID-50 L1210 (L1210 cells): > 10 µg/mL

CC(=O)OCc1c2c(n(C)c1/C=C/CO)C(=O)C=C(NCCc1ccccn1)C2=O [E.O. 62, 3-Acetoxymethyl-1-methyl-5-[2-pyridylethyl-1-amino]-2-[1H-indole-4,7-dione]prop-β-en-α-ol]
IC50 [1, 7]: > 10 µg/mL | IC50 ([1]; Table VI, read-out: ID-50 R-1): > 10 µg/mL | IC50 (L1210 cells; [8]): > 10 µg/mL | ID-50 L1210 (L1210 cells): > 10 µg/mL

CCC1(O)CC2CN(CCc3c([nH]c4ccccc34)C(C(=O)OC)(c3cc4c(cc3OC)N(C)C3C(O)(C(=O)OC)C(OC(C)=O)C5(CC)C=CCN6CCC43C65)C2)C1 (stereo not drawn) [Vinblast., reference compound]
in vitro activity score, MCF-7 (MCF7 breast cancer cells; 1.0 μg/ml): + | in vitro activity score, MCF-7 (MCF7 breast cancer cells; 10 μg/ml): + | in vitro activity score, T 24 ([4]; 0.1 μg/ml): + | in vitro activity score, WiDr (WiDr cells; colon tumour; 0.01 μg/ml): + | in vitro activity score, WiDr (WiDr cells; colon tumour; 0.1 μg/ml): + | in vitro activity score, WiDr (WiDr cells; colon tumour; 1.0 μg/ml): + | in vitro activity score, WiDr (WiDr cells; colon tumour; 10 μg/ml): + | in vitro activity score, IgR-37 (IgR37 cells melanoma; 0.01 μg/ml): + | in vitro activity score, IgR-37 (IgR37 cells melanoma; 0.1 μg/ml): +

CCC1(O)CC2CN(CCc3c([nH]c4ccccc34)C(C(=O)OC)(c3cc4c(cc3OC)N(C=O)C3C(O)(C(=O)OC)C(OC(C)=O)C5(CC)C=CCN6CCC43C65)C2)C1 (stereo not drawn) [Vincrist., reference compound]
in vitro activity score, T 24 ([4]; 0.01 μg/ml): - | in vitro activity score, T 24 ([4]; 0.1 μg/ml): + | in vitro activity score, WiDr (WiDr cells; colon tumour; 0.01 μg/ml): + | in vitro activity score, WiDr (WiDr cells; colon tumour; 0.1 μg/ml): + | in vitro activity score, IgR-37 (IgR37 cells melanoma; 0.01 μg/ml): + | in vitro activity score, IgR-37 (IgR37 cells melanoma; 0.1 μg/ml): +
